Source: patent publication US11654198B2, “Application of combination of polyethylene glycol and local anesthetic in non-narcotic analgesia” (JENKEM TECHNOLOGY CO., LTD. (TIANJIN), priority 2016, dated 2023)

How the values were obtained:
SD rats [1] = test: Hot plate paw withdrawal time, rat sciatica model, intervertebral disc compression (SNL) (Example 32); assay type: in vivo; conditions: for time the analgesic effect can reach: conjugate 10/11/12 at 32/24/48 mg/kg
Excerpt: Intervertebral disc compression (SNL): This model is a pathological form that simulates clinical disc herniation. The specific method is to remove the autogenous caudal intervertebral disc tissue (annulus fibrosus and nucleus pulposus) form the rats and place the caudal intervertebral disc tissue between the proximal nerve root of the L5 dorsal root ganglion and the lower vertebral body to directly compress the L5 nerve root, wherein damage to the L5 nerve root or dorsal root ganglion should be avoided during the operation. 3 to 15 days after the model is successful, rats develop significant hyperalgesia, so the administration time we chose is between 3 days and 15 days.
Qualified rats are randomly divided into 5 groups, 6 rats in each group, which are labeled as groups G1, G2, G3, G4 and G5, respectively. Administration by intramuscular injection around sciatic nerve is adopted, and the grouping information of the experimental animals is shown in Table 11.
(§1) Sensory block (hot plate paw withdrawal time): The sensory block of the rat is examined by a hot plate method, and the hot plate is heated to (56±1)° C., and one of the hind paws of the rat is placed on the hot plate, the other hind paw is in the laboratory room temperature condition, and the tested paw withdrawal time is observed and recorded. The average value of two to three times measured is recorded as a pain threshold. In order to avoid the damage of the experimental animal body, if the rat has no paw withdrawal in the hot plate experiment for more than 15 s, the paws should be removed from the hot plate, and the experimental result is recorded as 15 s. The time point for determining the withdrawal time of the hot plate is before administration, and 0.5 h, 1 h, 2 h, 4 h, 6 h, 8 h, 12 h, and 24 h after administration.

SD rats [2] = test: Sensory block, hot plate paw withdrawal time, non-anesthetic analgesic effect of PEG-bupivacaine conjugate (Example 30); assay type: in vivo, rat; conditions: for hot plate paw withdrawal time: conjugate 10/11/12 at 32/24/48 mg/kg (as bupivacaine); for time after administration at which hot plate paw withdrawal time is significantly higher than vehicle group: conjugate 10/11/12 at 32/24/48 mg/kg, direct injection; for time the analgesic effect could reach: conjugate 10 at 32 mg/kg, conjugate 11 at 24 mg/kg
Procedure: Male Sprague-Dawley rats are used in the study, about 230-250 g when accepted, and acclimated for at least 7 days prior to the experiment. Two rats are raised in each cage and fed freely with feed and water. The environmental conditions of the breeding room are 23±2° C., and the relative humidity is 40% to 70%, alternating 12 hours of light and dark. […] The qualified rats are randomly divided into 4 groups, 4 rats in each group, which are labeled as groups G1, G2, G3, and G4, respectively. Administration by direct injection in the sciatic nerve is adopted, and with the rat's back facing up, the drug is injected around the right sciatic nerve trunk between the right hip and the right thigh.
as §1, with “the hot plate. The other hind” for “the hot plate, the other hind”, “s, the rat should be” for “s, the paws should be”, “determining the paw withdrawal time” for “determining the withdrawal time”, “8 h, 10 h, 12 h,” for “8 h, 12 h,”

SD rats [3] = test: Hot plate paw withdrawal time, rat plantar incision model (Example 31); assay type: in vivo; conditions: for time the analgesic effect can reach: conjugate 10/11/12 at 32/24/48 mg/kg
Procedure: After SD rats inhale anesthesia (isoflurane), an incision of about 1 cm in length from the proximal end of the pelma to the toe is made: after the skin and fascia are cut, the plantar muscle is picked up with an ophthalmic forceps and cut longitudinally (maintaining the starting and ending point and attachment of muscles); pressing is carried out for hemostasis, physiological saline and test drugs are injected into the muscles of animal's legs, and then the pain threshold detection is performed by the hot plate method. Within 24 hours after the model is successful, the rats develop significant hyperalgesia. Qualified rats are randomly divided into 5 groups, 6 rats in each group, which are labeled as groups G1, G2, G3, G4 and G5, respectively. The plantar subcutaneous injection method for administration is used, and the grouping information of the experimental animals is shown in Table 8.
as §1, with “determining the paw withdrawal time” for “determining the withdrawal time”

[4] = 0 h (after surgery, before administration), bupivacaine 8, conjugate 10/11/12 32/24/48 mg/kg
[5] = 0.5 h after intramuscular injection around sciatic nerve, bupivacaine 8, conjugate 10/11/12 32/24/48 mg/kg
[6] = 1 h after intramuscular injection around sciatic nerve, bupivacaine 8, conjugate 10/11/12 32/24/48 mg/kg
[7] = 2 h after intramuscular injection around sciatic nerve, bupivacaine 8, conjugate 10/11/12 32/24/48 mg/kg
[8] = 4 h after intramuscular injection around sciatic nerve, bupivacaine 8, conjugate 10/11/12 32/24/48 mg/kg
[9] = 6 h after intramuscular injection around sciatic nerve, bupivacaine 8, conjugate 10/11/12 32/24/48 mg/kg
[10] = 8 h after intramuscular injection around sciatic nerve, bupivacaine 8, conjugate 10/11/12 32/24/48 mg/kg
[11] = 12 h after intramuscular injection around sciatic nerve, bupivacaine 8, conjugate 10/11/12 32/24/48 mg/kg
[12] = 24 h after intramuscular injection around sciatic nerve, bupivacaine 8, conjugate 10/11/12 32/24/48 mg/kg
[13] = before surgery, bupivacaine 8, conjugate 10/11/12 32/24/48 mg/kg (as bupivacaine)
[14] = bupivacaine 8, conjugate 10/11/12 32/24/48 mg/kg
[15] = 0.5 h after direct injection around sciatic nerve
[16] = 2 h after direct injection around sciatic nerve
[17] = 4 h after direct injection around sciatic nerve
[18] = 6 h after direct injection around sciatic nerve
[19] = 8 h after direct injection around sciatic nerve
[20] = 10 h after direct injection around sciatic nerve
[21] = 12 h after direct injection around sciatic nerve
[22] = 24 h after direct injection around sciatic nerve
[23] = l h after direct injection around sciatic nerve
[24] = 0.5 h after plantar subcutaneous injection, bupivacaine 8, conjugate 10/11/12 32/24/48 mg/kg
[25] = 1 h after plantar subcutaneous injection, bupivacaine 8, conjugate 10/11/12 32/24/48 mg/kg
[26] = 2 h after plantar subcutaneous injection, bupivacaine 8, conjugate 10/11/12 32/24/48 mg/kg
[27] = 4 h after plantar subcutaneous injection, bupivacaine 8, conjugate 10/11/12 32/24/48 mg/kg
[28] = 6 h after plantar subcutaneous injection, bupivacaine 8, conjugate 10/11/12 32/24/48 mg/kg
[29] = 8 h after plantar subcutaneous injection, bupivacaine 8, conjugate 10/11/12 32/24/48 mg/kg
[30] = 12 h after plantar subcutaneous injection, bupivacaine 8, conjugate 10/11/12 32/24/48 mg/kg
[31] = 24 h after plantar subcutaneous injection, bupivacaine 8, conjugate 10/11/12 32/24/48 mg/kg
[32] = base value before surgery, bupivacaine 8, conjugate 10/11/12 32/24/48 mg/kg (as bupivacaine)

Substance | hot plate paw withdrawal time (SD rats [1]; [4]) [s] | hot plate paw withdrawal time (SD rats [1]; [5]) [s] | hot plate paw withdrawal time (SD rats [1]; [6]) [s] | hot plate paw withdrawal time (SD rats [1]; [7]) [s] | hot plate paw withdrawal time (SD rats [1]; [8]) [s] | hot plate paw withdrawal time (SD rats [1]; [9]) [s] | hot plate paw withdrawal time (SD rats [1]; [10]) [s] | hot plate paw withdrawal time (SD rats [1]; [11]) [s] | hot plate paw withdrawal time (SD rats [1]; [12]) [s] | hot plate paw withdrawal time (SD rats [1]; [13]) [s] | time the analgesic effect can reach (SD rats [1]) [h] | hot plate paw withdrawal time (SD rats [2]; [15]) [s] | hot plate paw withdrawal time (SD rats [2]; [16]) [s] | hot plate paw withdrawal time (SD rats [2]; [17]) [s] | hot plate paw withdrawal time (SD rats [2]; [18]) [s] | hot plate paw withdrawal time (SD rats [2]; [19]) [s] | hot plate paw withdrawal time (SD rats [2]; [20]) [s] | hot plate paw withdrawal time (SD rats [2]; [21]) [s] | hot plate paw withdrawal time (SD rats [2]; [22]) [s] | hot plate paw withdrawal time (SD rats [2]; [23]) [s] | also measured
8-Arm-PEG-Bupivacaine, 20K [bupivacaine conjugate 12] | 1.89 | 8.13 | 7.21 | 6.12 | 2.98 | 2.91 | 2.18 | 1.85 | 2.56 | 5.51 | 2 | 6.49 | 3.52 | 4.82 | 4.59 | 4.34 | 4.30 | 2.80 | 3.25 | 6.77 | time after administration at which hot plate paw withdrawal time is significantly higher than vehicle group (SD rats [1]; [14]): ≤ 2 h; time after administration at which hot plate paw withdrawal time is significantly higher than vehicle group (SD rats [2]): ≤ 2 h; hot plate paw withdrawal time (SD rats [3]; [4]): 1.89 s; hot plate paw withdrawal time (SD rats [3]; [24]): 8.13 s; hot plate paw withdrawal time (SD rats [3]; [25]): 7.21 s; hot plate paw withdrawal time (SD rats [3]; [26]): 6.12 s; hot plate paw withdrawal time (SD rats [3]; [27]): 2.49 s; hot plate paw withdrawal time (SD rats [3]; [28]): 2.34 s; hot plate paw withdrawal time (SD rats [3]; [29]): 2.10 s; hot plate paw withdrawal time (SD rats [3]; [30]): 1.92 s; hot plate paw withdrawal time (SD rats [3]; [31]): 1.76 s; hot plate paw withdrawal time (SD rats [3]; [32]): 5.81 s; time after administration at which hot plate paw withdrawal time is significantly higher than vehicle group (SD rats [3]; [14]): ≤ 2 h; time the analgesic effect can reach (SD rats [3]): 2 h
8-Arm-PEG-Bupivacaine, 20K [bupivacaine conjugate 11] | 2.14 | 7.43 | 8.49 | 9.10 | 8.31 | 7.10 | 1.97 | 2.71 | 2.76 | 5.15 | ≥ 6 | 9.60 | 5.02 | 6.65 | 6.44 | 3.69 | 3.24 | 2.62 | 3.77 | 9.99 | time after administration at which hot plate paw withdrawal time is significantly higher than vehicle group (SD rats [1]; [14]): ≤ 6 h; time after administration at which hot plate paw withdrawal time is significantly higher than vehicle group (SD rats [2]): ≤ 6 h; time the analgesic effect could reach (SD rats [2]): 6 h; hot plate paw withdrawal time (SD rats [3]; [4]): 1.26 s; hot plate paw withdrawal time (SD rats [3]; [24]): 7.43 s; hot plate paw withdrawal time (SD rats [3]; [25]): 8.49 s; hot plate paw withdrawal time (SD rats [3]; [26]): 9.10 s; hot plate paw withdrawal time (SD rats [3]; [27]): 7.91 s; hot plate paw withdrawal time (SD rats [3]; [28]): 8.65 s; hot plate paw withdrawal time (SD rats [3]; [29]): 2.19 s; hot plate paw withdrawal time (SD rats [3]; [30]): 1.89 s; hot plate paw withdrawal time (SD rats [3]; [31]): 1.56 s; hot plate paw withdrawal time (SD rats [3]; [32]): 4.97 s; time after administration at which hot plate paw withdrawal time is significantly higher than vehicle group (SD rats [3]; [14]): ≤ 6 h; time the analgesic effect can reach (SD rats [3]): ≥ 6 h
8-Arm-PEG-Bupivacaine, 20K [bupivacaine conjugate 10] | 2.41 | 6.52 | 10.12 | 11.43 | 9.83 | 8.10 | 6.91 | 1.96 | 2.18 | 4.98 | 8 | 11.85 | 8.91 | 10.74 | 11.92 | 8.49 | 6.64 | 3.82 | 3.81 | 11.98 | time the analgesic effect could reach (SD rats [2]): 8 h; hot plate paw withdrawal time (SD rats [3]; [4]): 1.41 s; hot plate paw withdrawal time (SD rats [3]; [24]): 6.52 s; hot plate paw withdrawal time (SD rats [3]; [25]): 7.91 s; hot plate paw withdrawal time (SD rats [3]; [26]): 6.21 s; hot plate paw withdrawal time (SD rats [3]; [27]): 6.79 s; hot plate paw withdrawal time (SD rats [3]; [28]): 7.42 s; hot plate paw withdrawal time (SD rats [3]; [29]): 7.43 s; hot plate paw withdrawal time (SD rats [3]; [30]): 2.10 s; hot plate paw withdrawal time (SD rats [3]; [31]): 1.32 s; hot plate paw withdrawal time (SD rats [3]; [32]): 5.20 s; time the analgesic effect can reach (SD rats [3]): 8 h
